This is an account of results in patent US9783541B2, “5′-nucleotidase inhibitors and therapeutic uses thereof” (Centre National de la Recherche Scientifique-CNRS, priority 2013, dated 2017).

Like-named read-outs stand apart in the source and are kept apart here.

The test system of data set [1] is RL human follicular lymphoma cell line. The data set can be described thus: cytotoxicity on RL cancer line (MTT, IC50). The settings on record: for IC50: read-out: RL cancer line IC50, 72 h incubation, MTT.
Description: (§2) After 72 h of incubation, the living cells are quantified using the MTT reagent.
(§3) The inhibitory concentration 50 (IC50) and the combination index (CI95) are calculated with the CompuSyn software 1.0 (ComboSyn, Inc., USA).
Data set [2] deals with purified recombinant cN-II enzyme (Homo sapiens, UniProt P49902). The data set can be described thus: cN-II inhibition test (inorganic phosphate from IMP, Malachite green). Details: key to Inhibition strength (Strong/Medium/Weak): Strong; Medium; Weak. The data set is classed as biochemical. Here is the method:
The activity of cN-II is measured in vitro by following the appearance of the inorganic phosphate produced during the enzymatic reaction. The purified recombinant cN-II enzyme is used in the presence of its preferential substrate, inosine 5′-monophosphate (IMP). During the hydrolysis reaction, inosine and inorganic phosphate are produced from the IMP. This phosphate is then assayed by means of a colorimetric method using Malachite green (kit sold by the company Gentaur): the reading of absorbence at 630 nm makes it possible to quantify the inorganic phosphate.
The reagents used are: 50 mM imidazole buffer, pH=6.5, 500 mM NaCl and 10 mM MgCl2. The enzyme (cN-II) concentration is 0.1 μM and the IMP concentration is 100 μM.
A phosphate concentration range is performed in parallel in order to quantify the phosphate produced during the reaction.

Data set [3] has as its system RL cancer line. The data set can be described thus: Synergy MTT test with cytotoxic nucleoside analogs. The settings on record: for Synergy MTT with cladribine / Synergy MTT with clofarabine / Synergy MTT with fludarabine: RL cells, 72 h, constant ratio, CI95; for Synergy MTT with cladribine: partner cladribine; for Synergy MTT with clofarabine: partner clofarabine; for Synergy MTT with fludarabine: partner fludarabine; for synergistic effect with at least one of the three anticancer agents: cladribine, clofarabine, fludarabine. The data set is classed as cell-based, Human.
Description: as §2, §3
The CI95 is calculated according to the method of Chou and Talalay^3 with a formula which takes into account the concentrations of the two compounds and the fraction affected at these concentrations (i.e. the dead cells).

For data set [4], the system named is cells of CLL patients. The data set can be described thus: ex vivo cytotoxicity, Annexin V / propidium iodide flow cytometry, CLL patient cells. Format: cell-based, human. Conditions: 10 μM, 24 hours. Here is the method:
(§1) Peripheral blood was recovered from patients suffering from chronic […] leukemia (LLC) or from acute myeloid leukemia (AML) in heparinized tubes. […] The cells having experienced an effect of the incubations are labeled with Annexin V alone or with propidium iodide (see FIG. 6).

Data set [5] concerns cells of AML patients. The data set can be described thus: ex vivo cytotoxicity, Annexin V / propidium iodide flow cytometry, AML patient cells. Format: cell-based, human. Conditions: 100 μM, 24 hours. How it is done: as §1
[6] abbreviates: 200 μM compound, 0.1 μM cN-II, 100 μM IMP, pH 6.5, 37° C.

Sequence of purified recombinant cN-II enzyme (P49902 whole entry): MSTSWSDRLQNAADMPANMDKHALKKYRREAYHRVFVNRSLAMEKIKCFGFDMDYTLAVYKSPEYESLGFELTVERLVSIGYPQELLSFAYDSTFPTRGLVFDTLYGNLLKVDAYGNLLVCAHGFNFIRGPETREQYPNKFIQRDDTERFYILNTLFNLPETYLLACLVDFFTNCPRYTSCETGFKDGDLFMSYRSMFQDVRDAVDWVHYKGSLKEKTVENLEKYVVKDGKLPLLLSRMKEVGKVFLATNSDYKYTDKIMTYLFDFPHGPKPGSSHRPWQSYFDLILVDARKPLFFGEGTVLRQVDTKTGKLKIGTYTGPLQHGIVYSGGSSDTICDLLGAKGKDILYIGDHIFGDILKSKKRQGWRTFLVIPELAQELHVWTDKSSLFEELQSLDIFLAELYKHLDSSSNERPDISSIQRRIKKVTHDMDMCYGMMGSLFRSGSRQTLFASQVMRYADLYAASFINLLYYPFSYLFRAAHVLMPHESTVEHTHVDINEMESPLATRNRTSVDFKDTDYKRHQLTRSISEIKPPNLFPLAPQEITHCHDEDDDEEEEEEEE

Turning to `O=C(Nc1ncnc2ncn(COCc3ccccc3)c12)c1cccc(-c2ccccc2)c1` [(21)], in data set [1] (cell model used (RL)), the “intrinsic cytotoxic activity, IC50 values” is “a few micromolar to a few tens of micromolar”. Also, in data set [1], the half-inhibitory concentration (IC50) turned out to be 36 µM. In addition, the “Inhibition cN-II in vitro (200 μM)” value in data set [2] (setting [6]) is listed as 50 +/− 2%. In addition, the “Inhibition strength (Strong/Medium/Weak)” value in data set [2] (cN-II) is “M”. Besides, in data set [3], the “Synergy MTT with cladribine” value is given as “Synergy with (CI95 values below 0.9 indicate synergy between the two compounds)”; the “Synergy MTT with clofarabine” value is recorded as “Synergy with (CI95 values below 0.9 indicate synergy between the two compounds)”; the “Synergy MTT with fludarabine” value was “Additive with (values between 0.9 and 1.1 indicate additivity)”; the “synergistic effect with at least one of the three anticancer agents” value (“synergistic effect with at least one” below) is “synergistic effect”.

For “9-(phenylmethyl)-9H-purin-6-yl-[1,1′-biphenyl]-3-carboxamide [(20)]”, in data set [2], the “Inhibition strength (Strong/Medium/Weak)” value is “S”. In addition, the “Inhibition cN-II in vitro (200 μM)” value in data set [2] (pH 6.5) was 58 +/−19%. For the same molecule, in data set [3], the “Synergy MTT with cladribine” value was “Antagonistic with (values above 1.1 indicate antagonism)”, the “Synergy MTT with clofarabine” value is “Antagonistic with (values above 1.1 indicate antagonism)”, the “Synergy MTT with fludarabine” value was “Synergy with (CI95 values below 0.9 indicate synergy between the two compounds)” and the “synergistic effect with at least one” value was “synergistic effect”.

Turning to “(naphthalene-2-carbonylamino-9H-purin-6-yl)methylphosphonic acid [(32)]”, in data set [1], the concentration for half-maximal inhibition (IC50) is 145 µM. The “Inhibition cN-II in vitro (200 μM)” value in data set [2] (setting [6]) is listed as 10%. Besides, the “Inhibition strength (Strong/Medium/Weak)” value in data set [2] (cN-II) is reported as “W”.

Take `Nc1nc(F)nc2c1ncn2[C@@H]1O[C@H](CO)[C@@H](O)[C@@H]1O` [fludarabine]: the “Annexin V labeling, CLL samples” value in data set [4] is given as 45.8%.

Consider “(naphthalene-1-carbonylamino-9H-purin-6-yl)methylphosphonic acid [(31)]”, for which the concentration for half-maximal inhibition (IC50) in data set [1] was 250 µM. The “Inhibition cN-II in vitro (200 μM)” value in data set [2] (setting [6]) is given as 10%. The “Inhibition strength (Strong/Medium/Weak)” value in data set [2] (cN-II) is recorded as “W”.

With `O=C(Nc1ncnc2c1ncn2COCc1ccccc1)c1cccc(-c2ccccc2)c1` [(22), 9-[(phenylmethoxy)methyl]-9H-purin-6-yl-[1,1′-biphenyl]-3-carboxamide], the IC50 in data set [1] was determined as 188 µM. Also, in data set [2] (setting [6]), the “Inhibition cN-II in vitro (200 μM)” value is 43 +/− 7%. The “Inhibition strength (Strong/Medium/Weak)” value in data set [2] (cN-II) is on record as “M”.

In the case of `O=S(=O)(Nc1ncnc2[nH]cnc12)c1ccc(-c2ccccc2)cc1` [(33), 9H-purin-6-yl-[1,1′-biphenyl]-4-sulfonamide], the IC50 in data set [1] stood at 195 µM. Also, the “Inhibition cN-II in vitro (200 μM)” value in data set [2] (setting [6]) was 70 +/− 5%. Besides, the “Inhibition strength (Strong/Medium/Weak)” value in data set [2] (cN-II) is “S”.

In the case of `O=C(Nc1ncnc2ncn(Cc3ccccc3)c12)c1cccc(-c2ccccc2)c1` [(19)], the IC50 in data set [1] came out at 60 µM. Besides, the “Inhibition cN-II in vitro (200 μM)” value in data set [2] (setting [6]) was 68 +/− 15%. Moreover, in data set [2] (cN-II), the “Inhibition strength (Strong/Medium/Weak)” value is “S”. For the same molecule, in data set [3], the “Synergy MTT with cladribine” value is listed as “Synergy with (CI95 values below 0.9 indicate synergy between the two compounds)”, the “Synergy MTT with fludarabine” value is reported as “Synergy with (CI95 values below 0.9 indicate synergy between the two compounds)” and the “synergistic effect with at least one” value is listed as “synergistic effect”.

Consider `Nc1ccn([C@@H]2O[C@H](CO)[C@@H](O)[C@@H]2O)c(=O)n1` [cytarabine], for which the “Annexin V labeling, AML samples, mean over the five samples” value in data set [5] is recorded as 44.5%.
